Columns and labels:
Assay type in all cases: in vivo
[1] = system: ivy-leaved morning glory (Ipomoea hederacea); test: Test G Pre-Emergence Protocol; conditions: Ipomoea, pre-emergence, 312 h, evaluated after 13 days
Procedure, shortened: (§1)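 Pots of seeds in standard soil were grown for one day in a glasshouse (24/16 °C day/night, 14 h light, 65% humidity), then sprayed with compound in acetone/water 50:50 with 0.5% Tween 20 at 15.625, 62.5 or 250 g/ha. Damage was scored after 13 days on a 0 (none) to 100 (total) scale.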

[2] = system: barnyardgrass (Echinochloa crus-galli); test: Test G Pre-Emergence Protocol; conditions: Echinochloa crus-galli, pre-emergence, 312 h, evaluated after 13 days
Procedure, shortened: as §1

[3] = system: giant foxtail (Setaria faberi); test: Test G Pre-Emergence Protocol; conditions: Setaria faberi, pre-emergence, 312 h, evaluated after 13 days
Procedure, shortened: as §1

[4] = system: velvetleaf (Abutilon theophrasti); test: Test G Pre-Emergence Protocol; conditions: Abutilon theophrasti, pre-emergence, 312 h, evaluated after 13 days
Procedure, shortened: as §1

[5] = system: corn (Zea mays); test: Test G Pre-Emergence Protocol; conditions: Zea mays, pre-emergence, 312 h, evaluated after 13 days
Procedure, shortened: as §1

[6] = system: redroot pigweed (Amaranthus retroflexus); test: Test G Pre-Emergence Protocol; conditions: Amaranthus retroflexus, pre-emergence, 312 h, evaluated after 13 days
Procedure, shortened: as §1

[7] = system: ivy-leaved morning glory (Ipomoea hederacea); test: Test G Post-Emergence Protocol; conditions: Ipomoea, post-emergence, 312 h
Procedure, shortened: (§2)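 Eight days post-sowing, plants received a spray of test compound (acetone/water 50:50, 0.5% Tween 20) at 15.625, 62.5 or 250 g/ha. Glasshouse regime thereafter: 24/16 °C, 14 h light, 65% humidity. Assessment after 13 days on a 0–100 damage scale.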

[8] = system: barnyardgrass (Echinochloa crus-galli); test: Test G Post-Emergence Protocol; conditions: Echinochloa crus-galli, post-emergence, 312 h
Procedure, shortened: as §2

[9] = system: giant foxtail (Setaria faberi); test: Test G Post-Emergence Protocol; conditions: Setaria faberi, post-emergence, 312 h
Procedure, shortened: as §2

[10] = system: velvetleaf (Abutilon theophrasti); test: Test G Post-Emergence Protocol; conditions: Abutilon theophrasti, post-emergence, 312 h
Procedure, shortened: as §2

[11] = system: corn (Zea mays); test: Test G Post-Emergence Protocol; conditions: Zea mays, post-emergence, 312 h
Procedure, shortened: as §2

[12] = system: redroot pigweed (Amaranthus retroflexus); test: Test G Post-Emergence Protocol; conditions: Amaranthus retroflexus, post-emergence, 312 h
Procedure, shortened: as §2

**Q.** For `Cc1c(Cl)ccc([C@@H]2CN(C)C(=O)[C@H]2C(=O)Nc2cccc(F)c2F)c1F` (racemic) [Compound 1473], which pest or weed control at 15.625 g/ha ([1]; 15.625 g ai/ha, read-out: Morning-glory, Ivy-leaved damage rating (100=total damage to plant; 0=no damage to plant)) is on record?
**A.** 10%

**Q.** What about the pest or weed control at 62.5 g/ha ([1]; 62.5 g ai/ha, 100=total damage to plant, 0=no damage to plant, read-out: plant damage rating, Morningglory, Ivy-leaved) of the same compound?
**A.** 0%

**Q.** What about the pest or weed control at 250 g/ha ([1]; 250 g ai/ha, read-out: Morningglory, Ivy-leaved damage rating (100=total damage to plant; 0=no damage to plant)) of the same compound?
**A.** 10%

**Q.** And the pest or weed control at 15.625 g/ha ([2]; 15.625 g ai/ha, read-out: Barnyard grass damage rating (100=total damage to plant; 0=no damage to plant))?
**A.** 20%

**Q.** And the pest or weed control at 62.5 g/ha ([2]; 62.5 g ai/ha, 100=total damage to plant, 0=no damage to plant, read-out: plant damage rating, Barnyardgrass)?
**A.** 40%

**Q.** And the pest or weed control at 250 g/ha ([2]; 250 g ai/ha, read-out: Barnyardgrass damage rating (100=total damage to plant; 0=no damage to plant))?
**A.** 70%

**Q.** And the pest or weed control at 15.625 g/ha ([3]; 15.625 g ai/ha, read-out: Foxtail, Giant damage rating (100=total damage to plant; 0=no damage to plant))?
**A.** 50%

**Q.** What about the pest or weed control at 62.5 g/ha ([3]; 62.5 g ai/ha, 100=total damage to plant, 0=no damage to plant, read-out: plant damage rating, Foxtail, Giant) of the same compound?
**A.** 70%

**Q.** What about the pest or weed control at 250 g/ha ([3]; 250 g ai/ha, read-out: Foxtail, Giant damage rating (100=total damage to plant; 0=no damage to plant)) of the same compound?
**A.** 80%

**Q.** What about the pest or weed control at 15.625 g/ha ([4]; 15.625 g ai/ha, read-out: Velvetleaf damage rating (100=total damage to plant; 0=no damage to plant)) of the same compound?
**A.** 0%

**Q.** And the pest or weed control at 62.5 g/ha ([4]; 62.5 g ai/ha, 100=total damage to plant, 0=no damage to plant, read-out: plant damage rating, Velvetleaf)?
**A.** 0%

**Q.** What about the pest or weed control at 250 g/ha ([4]; 250 g ai/ha, read-out: Velvetleaf damage rating (100=total damage to plant; 0=no damage to plant)) of the same compound?
**A.** 0%

**Q.** What about the plant injury at 15.625 g/ha ([5]; 15.625 g ai/ha, read-out: Corn damage rating (100=total damage to plant; 0=no damage to plant)) of the same compound?
**A.** 0%

**Q.** And the plant injury at 62.5 g/ha ([5]; 62.5 g ai/ha, 100=total damage to plant, 0=no damage to plant, read-out: plant damage rating, Corn)?
**A.** 0%

**Q.** And the plant injury at 250 g/ha ([5]; 250 g ai/ha, read-out: Corn damage rating (100=total damage to plant; 0=no damage to plant))?
**A.** 10%

**Q.** And the pest or weed control at 15.625 g/ha ([6]; 15.625 g ai/ha, read-out: Pigweed, Redroot damage rating (100=total damage to plant; 0=no damage to plant))?
**A.** 0%

**Q.** What about the pest or weed control at 62.5 g/ha ([6]; 62.5 g ai/ha, 100=total damage to plant, 0=no damage to plant, read-out: plant damage rating, Pigweed, Redroot) of the same compound?
**A.** 0%

**Q.** What about the pest or weed control at 250 g/ha ([6]; 250 g ai/ha, read-out: Pigweed, Redroot damage rating (100=total damage to plant; 0=no damage to plant)) of the same compound?
**A.** 70%

**Q.** And the pest or weed control at 15.625 g/ha ([7]; 15.625 g ai/ha, evaluated after 13 days (100=total damage to plant; 0=no damage to plant), read-out: Morningglory, Ivy-leaved damage rating)?
**A.** 0%

**Q.** What about the pest or weed control at 62.5 g/ha ([7]; 62.5 g ai/ha, evaluated after 13 days, read-out: Morningglory, Ivy-leaved damage rating (100=total damage to plant; 0=no damage to plant)) of the same compound?
**A.** 10%

**Q.** And the pest or weed control at 250 g/ha ([7]; 250 g ai/ha, evaluated after 13 days, read-out: damage to plant, Morningglory, Ivy-leaved (100=total damage to plant; 0=no damage to plant))?
**A.** 20%

**Q.** And the pest or weed control at 15.625 g/ha ([8]; 15.625 g ai/ha, evaluated after 13 days (100=total damage to plant; 0=no damage to plant), read-out: Barnyardgrass damage rating)?
**A.** 40%

**Q.** And the pest or weed control at 62.5 g/ha ([8]; 62.5 g ai/ha, evaluated after 13 days, read-out: Barnyardgrass damage rating (100=total damage to plant; 0=no damage to plant))?
**A.** 40%

**Q.** And the pest or weed control at 250 g/ha ([8]; 250 g ai/ha, evaluated after 13 days, read-out: damage to plant, Barnyardgrass (100=total damage to plant; 0=no damage to plant))?
**A.** 50%

**Q.** What about the pest or weed control at 15.625 g/ha ([9]; 15.625 g ai/ha, evaluated after 13 days (100=total damage to plant; 0=no damage to plant), read-out: Foxtail, Giant damage rating) of the same compound?
**A.** 60%

**Q.** And the pest or weed control at 62.5 g/ha ([9]; 62.5 g ai/ha, evaluated after 13 days, read-out: Foxtail, Giant damage rating (100=total damage to plant; 0=no damage to plant))?
**A.** 70%

**Q.** And the pest or weed control at 250 g/ha ([9]; 250 g ai/ha, evaluated after 13 days, read-out: damage to plant, Foxtail, Giant (100=total damage to plant; 0=no damage to plant))?
**A.** 70%

**Q.** What about the pest or weed control at 15.625 g/ha ([10]; 15.625 g ai/ha, evaluated after 13 days (100=total damage to plant; 0=no damage to plant), read-out: Velvetleaf damage rating) of the same compound?
**A.** 0%

**Q.** And the pest or weed control at 62.5 g/ha ([10]; 62.5 g ai/ha, evaluated after 13 days, read-out: Velvetleaf damage rating (100=total damage to plant; 0=no damage to plant))?
**A.** 0%

**Q.** What about the pest or weed control at 250 g/ha ([10]; 250 g ai/ha, evaluated after 13 days, read-out: damage to plant, Velvetleaf (100=total damage to plant; 0=no damage to plant)) of the same compound?
**A.** 10%

**Q.** And the plant injury at 15.625 g/ha ([11]; 15.625 g ai/ha, evaluated after 13 days (100=total damage to plant; 0=no damage to plant), read-out: Corn damage rating)?
**A.** 20%

**Q.** What about the plant injury at 62.5 g/ha ([11]; 62.5 g ai/ha, evaluated after 13 days, read-out: Corn damage rating (100=total damage to plant; 0=no damage to plant)) of the same compound?
**A.** 10%

**Q.** What about the plant injury at 250 g/ha ([11]; 250 g ai/ha, evaluated after 13 days, read-out: damage to plant, Corn (100=total damage to plant; 0=no damage to plant)) of the same compound?
**A.** 10%

**Q.** What about the pest or weed control at 15.625 g/ha ([12]; 15.625 g ai/ha, evaluated after 13 days (100=total damage to plant; 0=no damage to plant), read-out: Pigweed, Redroot damage rating) of the same compound?
**A.** 0%

**Q.** And the pest or weed control at 62.5 g/ha ([12]; 62.5 g ai/ha, evaluated after 13 days, read-out: Pigweed, Redroot damage rating (100=total damage to plant; 0=no damage to plant))?
**A.** 0%

**Q.** What about the pest or weed control at 250 g/ha ([12]; 250 g ai/ha, evaluated after 13 days, read-out: damage to plant, Pigweed, Redroot (100=total damage to plant; 0=no damage to plant)) of the same compound?
**A.** 10%

From patent US12077503B2, “Substituted cyclic amides and their use as herbicides” (FMC CORPORATION, priority 2015, dated 2024)
